Measured values: patent publication US9567318B2, “Substituted pyrimidine compounds and uses thereof” (Memorial Sloan-Kettering Cancer Center, priority 2009, dated 2017)

system: Kasumi-1 acute myeloid leukemia cells; test: Growth Inhibition Assay (Alamar blue), Kasumi-1; assay type: cell-based, human; details: Homo sapiens, Kasumi 1, 72 h, Kasumi-1 cells
Description: The IC50 values listed for some of these compounds illustrate the antiproliferative effects of the subject compounds and were obtained using the Growth Inhibition assays described herein.
Growth Inhibition Assay. Antiproliferative effects of inhibitors were evaluated using the dye Alamar blue. This reagent offers a rapid objective measure of cell viability in cell culture, and it uses the indicator dye resazurin to measure the metabolic capacity of cells, an indicator of cell viability. Briefly, cells were plated on Costar 96-well plates. For attached cells (such as SKBr3, MDA-MB-468, LNCaP, MRCS), 8,000 cells/well were used. For suspension cells (such as MOLM-13, Kasumi-1, OCI-Ly7, PBL), 20,000 cells/well were plated. Cells were allowed to incubate for 24 h at 37° C. before drug treatment. Drugs were added in triplicates at the indicated concentrations, and the plate was incubated for 72 h. Alamar Blue (440 μM) was added, and the plate read 6 h later using the Analyst GT (Fluorescence intensity mode, excitation 530 nm, emission 580 nm, with 560=dichroic mirror). Results were analyzed using the Softmax Pro software. The percentage cell growth inhibition was calculated by comparing fluorescence readings obtained from treated versus control cells, accounting for initial cell population (time zero).

| Compound | IC50 |
| --- | --- |
| COc1nc(N2CCN(C)CC2)nc(OC)c1Sc1nc(N)cc(NC(C)=O)n1 [YK53, N-(6-amino-2-(4,6-dimethoxy-2-(4-methylpiperazin-1-yl)pyrimidin-5-ylthio)pyrimidin-4-yl)acetamide] | 16 µM |
| C=CC(=O)Nc1cc(N)nc(Sc2c(OC)nc(N)nc2OC)n1 [YK50, N-(6-amino-2-(2-amino-4,6-dimethoxypyrimidin-5-ylthio)pyrimidin-4-yl)acrylamide] | 1.5 µM |
| C=CC(=O)Nc1cc(N)nc(Sc2c(OCC)nc(N3CCN(C)CC3)nc2OCC)n1 [YK30, N-(6-amino-2-(4,6-diethoxy-2-(4-methylpiperazin-1-yl)pyrimidin-5-ylthio)pyrimidin-4-yl)acrylamide] | 0.48 µM |
| COc1nc(N2CCCCC2)nc(OC)c1Sc1nc(NC(C)=O)cc(NC(C)=O)n1 [YK9, N,N′-(2-(4,6-dimethoxy-2-(piperidin-1-yl)pyrimidin-5-ylthio)pyrimidine-4,6-diyl)diacetamide] | > 100 µM |
| CCC(=O)Nc1cc(N)nc(Sc2c(OC)nc(N3CCCCC3)nc2OC)n1 [YK16, N-(6-amino-2-(4,6-dimethoxy-2-(piperidin-1-yl)pyrimidin-5-ylthio)pyrimidin-4-yl)propionamide] | > 100 µM |
| COc1nc(N2CCN(C)CC2)nc(OC)c1Sc1nccc(N)n1 [YK67, 2-(4,6-dimethoxy-2-(4-methylpiperazin-1-yl)pyrimidin-5-ylthio)pyrimidin-4-amine] | 93.5 µM |
| C/C=C/C(=O)Nc1ccnc(Sc2c(C)nc(N3CCN(C)CC3)nc2C)n1 [YK87, (E)-N-(2-(4,6-dimethyl-2-(4-methylpiperazin-1-yl)pyrimidin-5-ylthio)pyrimidin-4-yl)but-2-enamide] | 16 µM |
| CCOc1nc(N2CCCCC2)nc(OCC)c1Sc1nc(N)cc(NC(=O)CC)n1 [YK38, N-(6-amino-2-(4,6-diethoxy-2-(piperidin-1-yl)pyrimidin-5-ylthio)pyrimidin-4-yl)propionamide] | 50 µM |
| CCOc1nc(N2CCCCC2)nc(OCC)c1Sc1nc(N)cc(NC(=O)C2CC2)n1 [YK40, N-(6-amino-2-(4,6-diethoxy-2-(piperidin-1-yl)pyrimidin-5-ylthio)pyrimidin-4-yl)cyclopropanecarboxamide] | 38.3 µM |
| COc1nc(N2CCN(C)CC2)nc(OC)c1Sc1nccc(NC(C)=O)n1 [YK63, N-(2-(4,6-dimethoxy-2-(4-methylpiperazin-1-yl)pyrimidin-5-ylthio)pyrimidin-4-yl)acetamide] | 11.2 µM |
| COc1nc(N2CCCCC2)nc(OC)c1Sc1nccc(NC(C)=O)n1 [YK64, N-(2-(4,6-dimethoxy-2-(piperidin-1-yl)pyrimidin-5-ylthio)pyrimidin-4-yl)acetamide] | 4 µM |
| CCC(=O)Nc1cc(N)nc(Sc2c(OC)nc(N3CCN(CCO)CC3)nc2OC)n1 [YK14, N-(6-amino-2-(2-(4-(2-hydroxyethyl)piperazin-1-yl)-4,6-dimethoxypyrimidin-5-ylthio)pyrimidin-4-yl)propionamide] | > 100 µM |
| CCOc1nc(N2CCOCC2)nc(OCC)c1Sc1nc(N)cc(NC(=O)c2ccco2)n1 [YK49, N-(6-amino-2-(4,6-diethoxy-2-morpholinopyrimidin-5-ylthio)pyrimidin-4-yl)furan-2-carboxamide] | > 100 µM |
| COc1nc(N2CCOCC2)nc(OC)c1Sc1nccc(N)n1 [YK69, 2-(4,6-dimethoxy-2-morpholinopyrimidin-5-ylthio)pyrimidin-4-amine] | 54.2 µM |
| C/C=C/C(=O)Nc1cc(N)nc(Sc2c(OCC)nc(N3CCN(C)CC3)nc2OCC)n1 [YK34, (E)-N-(6-amino-2-(4,6-diethoxy-2-(4-methylpiperazin-1-yl)pyrimidin-5-ylthio)pyrimidin-4-yl)but-2-enamide] | 55 µM |
| C=CC(=O)Nc1cc(N)nc(Sc2c(OCC)nc(N3CCCCC3)nc2OCC)n1 [YK37, N-(6-amino-2-(4,6-diethoxy-2-(piperidin-1-yl)pyrimidin-5-ylthio)pyrimidin-4-yl)acrylamide] | 2.5 µM |
| COc1nc(N2CCOCC2)nc(OC)c1Sc1nc(N)cc(N)n1 [YK11, 2-(4,6-dimethoxy-2-morpholinopyrimidin-5-ylthio)pyrimidine-4,6-diamine] | > 100 µM |
| COc1nc(N2CCOCC2)nc(OC)c1Sc1nc(NC(C)=O)cc(NC(C)=O)n1 [YK8, N,N′-(2-(4,6-dimethoxy-2-morpholinopyrimidin-5-ylthio)pyrimidine-4,6-diyl)diacetamide] | > 100 µM |
| CCOc1nc(N2CCN(C)CC2)nc(OCC)c1Sc1nc(NC(C)=O)cc(NC(C)=O)n1 [YK29, N,N′-(2-(4,6-diethoxy-2-(4-methylpiperazin-1-yl)pyrimidin-5-ylthio)pyrimidine-4,6-diyl)diacetamide] | 76.7 µM |
| COc1nc(N2CCN(C)CC2)nc(OC)c1Sc1nc(NC(C)=O)cc(NC(C)=O)n1 [YK1, N,N′-(2-(4,6-dimethoxy-2-(4-methylpiperazin-1-yl)pyrimidin-5-ylthio)pyrimidine-4,6-diyl)diacetamide] | 15 µM |
| COc1nc(N2CCCCC2)nc(OC)c1Sc1nc(N)cc(N)n1 [YK12, 2-(4,6-dimethoxy-2-(piperidin-1-yl)pyrimidin-5-ylthio)pyrimidine-4,6-diamine] | > 100 µM |
| COc1nc(F)nc(OC)c1Sc1nccc(NC(C)=O)n1 [YK62, N-(2-(2-fluoro-4,6-dimethoxypyrimidin-5-ylthio)pyrimidin-4-yl)acetamide] | > 100 µM |
| COc1nc(N2CCCC2)nc(OC)c1Sc1nccc(NC(C)=O)n1 [YK66, N-(2-(4,6-dimethoxy-2-(pyrrolidin-1-yl)pyrimidin-5-ylthio)pyrimidin-4-yl)acetamide] | 48.3 µM |
| C=CC(=O)Nc1ccnc(Sc2c(OC)nc(N3CCCCC3)nc2OC)n1 [YK72, N-(2-(4,6-dimethoxy-2-(piperidin-1-yl)pyrimidin-5-ylthio)pyrimidin-4-yl)acrylamide] | 2 µM |
| CCOc1nc(N2CCN(C)CC2)nc(OCC)c1Sc1nc(N)cc(NC(=O)C2CC2)n1 [YK33, N-(6-amino-2-(4,6-diethoxy-2-(4-methylpiperazin-1-yl)pyrimidin-5-ylthio)pyrimidin-4-yl)cyclopropanecarboxamide] | 88.7 µM |
| CCCCCCCC(=O)Nc1cc(N)nc(Sc2c(OC)nc(N3CCCCC3)nc2OC)n1 [YK23, N-(6-amino-2-(4,6-dimethoxy-2-(piperidin-1-yl)pyrimidin-5-ylthio)pyrimidin-4-yl)octanamide] | 13.2 µM |
| CCOc1nc(N2CCCCC2)nc(OCC)c1Sc1nc(NC(=O)C2CC2)cc(NC(=O)C2CC2)n1 [YK41, N,N′-(2-(4,6-diethoxy-2-(piperidin-1-yl)pyrimidin-5-ylthio)pyrimidine-4,6-diyl)dicyclopropanecarboxamide] | > 100 µM |
| CCC(=O)Nc1cc(N)nc(Sc2c(OC)nc(N3CCOCC3)nc2OC)n1 [YK15, N-(6-amino-2-(4,6-dimethoxy-2-morpholinopyrimidin-5-ylthio)pyrimidin-4-yl)propionamide] | > 100 µM |
| COc1nc(N2CCCC2)nc(OC)c1Sc1nccc(N)n1 [YK70, 2-(4,6-dimethoxy-2-(pyrrolidin-1-yl)pyrimidin-5-ylthio)pyrimidin-4-amine] | 25.2 µM |
| CCCCN1CCN(c2nc(OC)c(Sc3nc(NC(C)=O)cc(NC(C)=O)n3)c(OC)n2)CC1 [YK24, N,N′-(2-(2-(4-butylpiperazin-1-yl)-4,6-dimethoxypyrimidin-5-ylthio)pyrimidine-4,6-diyl)diacetamide] | 16.8 µM |
